Measured values reported in patent publication US12673039B2, “Methods of inducing autophagy using coumarin derivatives and related compounds” (Buck Institute for Research on Aging, priority 2019, dated 2026).

Key:
[1] = tested on: human TFEB promoter; assay: TFEB promoter secreted-luciferase assay in rat N27 neuronal cells; assay type: cell-based; conditions: 24 hour treatment, versus DMSO-control (FIG. 18, panel A)
Procedure: FIG. 18, panels A-F: AIC106 (Autophagy Inducing Coumarin-106) induces transcription of TFEB and its targets in vitro in rat N27 neuronal cells and in vivo in C. elegans. Panel A) Relative fold change in TFEB promoter activity compared to DMSO-control was determined by quantifying luciferase activity in supernatants collected from rat N27 neuronal cells post-24 hour treatment with C1 (AIC106), D1 and D2. [n=3 independent experiments (mean±SEM), **p<0.01, by one-way ANOVA with Dunnett's multiple comparisons test]. Panel B) Chemical structure of AIC106 and its structural derivative D1 and D2. Panel C) Relative fold change in mRNA of tfeb and its targets compared to DMSO-control were quantified using qRT-PCR in N27 neuronal cells post-24 hour treatment with AIC106 [N=3 independent experiments (mean±SD). *p<0.05, **p<0.01 and ****p<0.0001, by two-way ANOVA with Sidak's multiple comparisons test]. Panel D) Changes in HLH-30 expression were measured by quantifying GFP intensity in an individual GFP-tagged HLH-30 strain (MAH235) post-24 hours treatment with AIC106 and DMSO-control. […] Panel E) HLH-30; GFP (MAH235) were monitored by fluorescence microscopy. Panel F) Relative fold change in mRNA of hlh-30 and its targets compared to DMSO-control were quantified using qRT-PCR in young adult wild type N2 worms post-24 hours treatment with AIC106. […]

[2] = tested on: TFEB; assay: qPCR of TFEB and downstream target genes in differentiated SY5Y cells; assay type: cell-based, human; conditions: qPCR (FIG. 6)
Text: Relative expression of TFEB and downstream target genes as assessed by qPCR from mRNA extracted from differentiated SY5Y cells treated with C1 (AIC106) versus vehicle-treated controls. Values represent fold induction versus controls, *p<0.01. Run in triplicate in 3 independent experiments.
In vitro drug screening studies. […] We utilized for these studies a 3000 compound natural product derivative library (Timtec, Newark, DE) in […] transfected with a sensitive TFEB promotor-Gaussian luciferase construct. […] C1 is a coumarin-related compound, part of a family of natural benzopyrones found in many edible plants.

With `O=c1oc2c3c4c(cc2c2c1CCC2)CCCN4CCC3` [C1, 2,3,6,7,10,11-Hexahydro-1H,5H-cyclopenta(3,4)(1)benzopyrano(6,7,8-ij)quinolizin-12(9H)-one] the “luciferase transcription (TFEB promoter activity)” value [1] was 6-7 fold, the TFEB expression [2] was “significant dose-dependent elevations in TFEB expression” and the “downstream TFEB target genes” value [2] was “up-regulation of several downstream TFEB target genes”.
